# Assay results published in US20250176602A1, “Composition for Proliferation of Bacteroides uniformis in the Intestinal Tract” (Asahi Group Holdings, Ltd., priority 2019, published 2025).
# Experiments:
# [1] = system: Bacteroides, Bifidobacterium, and Lactobacillus; conditions: obese mice given high-fat diets, fed α-cyclodextrin; cited from earlier work
# [2] = Fatigue feeling mitigation test, VAS questionnaire after Aerobike exercise loading (Example 2); format: in vivo, human
# Procedure: (§1) As test subjects, 21 healthy males at the ages of 20 to 49 who have exercise habits of conducting exercise with an intensity of 5 METs or more for 30 minutes or more once or twice a week and who can continue the exercise habits during the test period as well were selected.
# (§2) Among the 21 test subjects, 10 test subjects were selected as an α-cyclodextrin (αCD) intake group, and the remaining 11 test subjects were selected as a placebo group. The test subjects themselves were not informed who belonged to which group.
# (§3) Test Supplements (tablets) having compositions described in Table 1 below were used. One tablet of the test supplements was of about 250 mg.
# (§4) Each test subject of the αCD intake group and the placebo group was asked to take in 3 tablets of the above test supplements once a day at any timing. That is, each test subject of the α-cyclodextrin intake group was asked to take in about 200 mg of α-cyclodextrin per day.
# The intake period for the test supplements was set to 9 weeks, and change in gut flora was evaluated, a questionnaire on fatigue feeling was conducted, and change in travel time was evaluated, before the start of the intake, after 4-week intake, and after 8-week intake. Note that foods and beverages that are said to support sports and training, pharmaceutical products and quasi-pharmaceutical products that have recovery, prevention or amelioration of “fatigue”, “tiredness”, “physical strength” and/or “lassitude” as the indication and effects, as well as supplements in general (also including foods with functional claims and foods for specified health use) were prohibited to take in for 1 week counted from the date when the test subjects agreed to participate in the test and during the test period.
# The test subjects were subjected to exercise loading (load intensity: at an intensity of 45% of the maximum exercise loading intensity of each test subject for 50 minutes) using Aerobike (trade mark) (manufactured by KONAMI Sports & Life Col., Ltd., model number AEROBIKE-75XLIII), before intake of the test supplements, after 4-week intake, and after 8-week intake. […] Regarding fatigue, a VAS (Visual Analogue Scale) questionnaire was conducted based on the VAS testing method for fatigue feeling established by Japanese Society of Fatigue Science, immediately after loading, 30 minutes after loading, and 60 minutes after loading, to investigate change in fatigue feeling with time. The items of the questionnaire were “general fatigue feeling”, “fatigue feeling of the legs”, “tension of the legs”, “general lassitude”, and “difficulty in breathing”, and the “best state (0 mm)” and the “worst state (100 mm)” in each item were based on criteria shown in Table 2. In each intake group, the amounts of change in measured value were evaluated after 4-week intake and after 8-week intake based on the measured value before intake. […] The significant test between the placebo group and the α-cyclodextrin (αCD) intake group for the general fatigue feeling was conducted by Student's t-test, and the result of the test was summarized as a graph in FIG. 2 (*: p<0.05). In addition, the results for the items “fatigue feeling of the legs”, “tension of the legs”, “general lassitude”, and “difficulty in breathing” were summarized in Table 3. In Table 3, the significant difference was studied by paired t-test for a comparison with before intake of αCD, and the significant test between the placebo group and the α-cyclodextrin (αCD) intake group was conducted by Student's t-test.
# [3] = Exercise performance test, 10 km SPIN CYCLE travel time (Example 3); format: in vivo, human; conditions: about 200 mg/day
# Procedure: as §1, §2, §3, §4
# The intake period for the test supplements was set to 9 weeks, and change in gut flora was evaluated, a questionnaire on fatigue feeling was conducted, and change in travel time was evaluated, before the start of the intake, after 4-week intake, and after 8-week intake. […]
# [4] = 30 minutes after exercise, after 4-week intake, about 200 mg/day
# [5] = 30 minutes after exercise, after 8-week intake, about 200 mg/day
# [6] = 30 minutes after exercise, before intake
# [7] = 60 minutes after exercise, after 4-week intake, about 200 mg/day
# [8] = 60 minutes after exercise, after 8-week intake, about 200 mg/day
# [9] = 60 minutes after exercise, before intake
# [10] = immediately after exercise, after 4-week intake, about 200 mg/day
# [11] = immediately after exercise, after 8-week intake, about 200 mg/day
# [12] = immediately after exercise, before intake
smiles,measurement,setting,value
OC[C@H]1O[C@@H]2O[C@H]3[C@H](O)[C@@H](O)[C@@H](O[C@H]4[C@H](O)[C@@H](O)[C@@H](O[C@H]5[C@H](O)[C@@H](O)[C@@H](O[C@H]6[C@H](O)[C@@H](O)[C@@H](O[C@H]7[C@H](O)[C@@H](O)[C@@H](O[C@H]1[C@H](O)[C@H]2O)O[C@@H]7CO)O[C@@H]6CO)O[C@@H]5CO)O[C@@H]4CO)O[C@@H]3CO [α-cyclodextrin],accumulation of fat,[1],reductions in accumulation of fat
same,"total bacterial cell numbers of Bacteroides, Bifidobacterium, and Lactobacillus in the intestinal tracts",[1],suppress decreases
same,VAS Difficulty in breathing,[2]; [4],17.727 ± 15.300 mm
same,VAS Fatigue feeling of the legs,[2]; [4],38.002 ± 21.474 mm
same,VAS General lassitude,[2]; [4],27.436 ± 16.724 * mm
same,VAS Tension of the legs,[2]; [4],38.015 ± 21.098 mm
same,VAS Difficulty in breathing,[2]; [5],16.498 ± 18.581 * mm
same,VAS Fatigue feeling of the legs,[2]; [5],28.636 ± 21.115 ** mm
same,VAS General lassitude,[2]; [5],24.728 ± 21.853 * mm
same,VAS Tension of the legs,[2]; [5],26.662 ± 21.491 ** mm
same,VAS Difficulty in breathing,[2]; [6],22.702 ± 23.028 mm
same,VAS Fatigue feeling of the legs,[2]; [6],42.045 ± 25.730 mm
same,VAS General lassitude,[2]; [6],39.689 ± 21.542 mm
same,VAS Tension of the legs,[2]; [6],41.674 ± 26.128 mm
same,VAS Difficulty in breathing,[2]; [7],16.907 ± 16.405 mm
same,VAS Fatigue feeling of the legs,[2]; [7],31.167 ± 20.034 mm
same,VAS General lassitude,[2]; [7],20.932 ± 16.099 mm
same,VAS Tension of the legs,[2]; [7],29.904 ± 19.297 mm
same,VAS Difficulty in breathing,[2]; [8],12.228 ± 15.335 mm
same,VAS Fatigue feeling of the legs,[2]; [8],22.603 ± 21.310 * mm
same,VAS General lassitude,[2]; [8],17.754 ± 19.279 * mm
same,VAS Tension of the legs,[2]; [8],22.193 ± 22.240 mm
same,VAS Difficulty in breathing,[2]; [9],16.882 ± 18.668 mm
same,VAS Fatigue feeling of the legs,[2]; [9],34.945 ± 26.504 mm
same,VAS General lassitude,[2]; [9],30.096 ± 20.702 mm
same,VAS Tension of the legs,[2]; [9],33.394 ± 26.250 mm
same,"general fatigue feeling after the exercise (VAS), change vs before intake, compared with placebo group","[2]; about 200 mg/day, after 4-week and 8-week intake, p<0.05",significantly decreased
same,VAS Difficulty in breathing,[2]; [10],30.597 ± 21.390 * mm
same,VAS Fatigue feeling of the legs,[2]; [10],60.911 ± 21.493 mm
same,VAS General lassitude,[2]; [10],41.464 ± 17.587 mm
same,VAS Tension of the legs,[2]; [10],58.542 ± 25.137 mm
same,VAS Difficulty in breathing,[2]; [11],29.033 ± 20.173 ** mm
same,VAS Fatigue feeling of the legs,[2]; [11],54.009 ± 23.092 mm
same,VAS General lassitude,[2]; [11],39.053 ± 21.314 * mm
same,VAS Tension of the legs,[2]; [11],55.137 ± 24.253 mm
same,VAS Difficulty in breathing,[2]; [12],44.516 ± 19.027 mm
same,VAS Fatigue feeling of the legs,[2]; [12],53.304 ± 25.421 mm
same,VAS General lassitude,[2]; [12],51.306 ± 20.273 mm
same,VAS Tension of the legs,[2]; [12],59.341 ± 24.644 mm
same,travel time for 10 km,"[3]; after 4-week intake, compared with same group before intake",significantly shortened
same,travel time for 10 km,"[3]; after 8-week intake, compared with same group before intake and placebo group after 8-week intake",significantly shortened
